Source: patent US10543249B2, “Pharmaceutical composition for a sustained release of lanreotide” (IPSEN PHARMA S.A.S., priority 2013, dated 2020)

Experiment: Solubility of lanreotide acetate
Type: physicochemical
From the text: The term “co-solvent” as used in the present application refers to a solvent or a mixture of solvents which allows the incorporation of the active ingredient in the composition to obtain the required dose in a suitable volume and matching the injectability criteria.
A composition according to the present invention comprises a co-solvent which allows obtaining the required injectability criteria of the pharmaceutical compositions. The co-solvent used in the composition according to the present invention is hydrosoluble. Moreover, the solubility, in the hydrosoluble co-solvent, of lanreotide or its salts used according to the present invention is equal or higher than 8% (w/v) at room temperature. For comparison, the solubility of lanreotide acetate is less than 4% in water, aqueous acetic acid (at the concentration of 0.1 or 1 mol/mL), aqueous NaCl (0.9%), or polysorbate (0.01%).

Measured: solubility of lanreotide acetate

CC(C)[C@@H]1NC(=O)[C@H](CCCCN)NC(=O)[C@@H](Cc2c[nH]c3ccccc23)NC(=O)[C@H](Cc2ccc(O)cc2)NC(=O)[C@@H](NC(=O)[C@H](N)Cc2ccc3ccccc3c2)CSSC[C@@H](C(=O)N[C@H](C(N)=O)[C@@H](C)O)NC1=O [lanreotide acetate]
less than 4%: in aqueous NaCl (0.9%) | in aqueous acetic acid (at the concentration of 0.1 or 1 mol/mL) | in polysorbate (0.01%) | in water
